Reference: ChEMBL document CHEMBL2146446, “3-Hydroxy-1-alkyl-2-methylpyridine-4(1H)-thiones: Inhibition of the Pseudomonas aeruginosa Virulence Factor LasB” (ACS Med Chem Lett, 2012)
Activity calls are given as the source filed them. No cut-off for these calls is given here.

Columns and labels:
[1] = target: Elastase (Pseudomonas aeruginosa (strain ATCC 15692 / PAO1 / 1C / PRS 101 / LMG12228)) (UniProt P14756); test: (§1) Antagonist activity at Pseudomonas aeruginosa LasB using Abz-Ala-Gly-Leu-Ala-p-Nitro-Benzyl-Amide as substrate incubated for 30 mins prior to substrate addition by FRET assay; assay type: functional
Elastase (Pseudomonas aeruginosa (strain ATCC 15692 / PAO1 / 1C / PRS 101 / LMG12228)), sequence (P14756 198-498 limits assumed): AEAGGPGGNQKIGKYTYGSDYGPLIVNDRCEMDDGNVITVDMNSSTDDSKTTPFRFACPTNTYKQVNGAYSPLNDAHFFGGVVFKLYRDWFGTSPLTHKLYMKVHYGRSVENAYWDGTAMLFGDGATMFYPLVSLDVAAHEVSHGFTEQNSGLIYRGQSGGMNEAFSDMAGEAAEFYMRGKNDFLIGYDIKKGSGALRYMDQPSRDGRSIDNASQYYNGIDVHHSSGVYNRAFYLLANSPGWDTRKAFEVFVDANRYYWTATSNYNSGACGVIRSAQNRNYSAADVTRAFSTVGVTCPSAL

Elastase = Elastase (Pseudomonas aeruginosa (strain ATCC 15692 / PAO1 / 1C / PRS 101 / LMG12228), UniProt P14756); test: as §1; assay type: functional
Elastase, sequence (P14756 whole entry): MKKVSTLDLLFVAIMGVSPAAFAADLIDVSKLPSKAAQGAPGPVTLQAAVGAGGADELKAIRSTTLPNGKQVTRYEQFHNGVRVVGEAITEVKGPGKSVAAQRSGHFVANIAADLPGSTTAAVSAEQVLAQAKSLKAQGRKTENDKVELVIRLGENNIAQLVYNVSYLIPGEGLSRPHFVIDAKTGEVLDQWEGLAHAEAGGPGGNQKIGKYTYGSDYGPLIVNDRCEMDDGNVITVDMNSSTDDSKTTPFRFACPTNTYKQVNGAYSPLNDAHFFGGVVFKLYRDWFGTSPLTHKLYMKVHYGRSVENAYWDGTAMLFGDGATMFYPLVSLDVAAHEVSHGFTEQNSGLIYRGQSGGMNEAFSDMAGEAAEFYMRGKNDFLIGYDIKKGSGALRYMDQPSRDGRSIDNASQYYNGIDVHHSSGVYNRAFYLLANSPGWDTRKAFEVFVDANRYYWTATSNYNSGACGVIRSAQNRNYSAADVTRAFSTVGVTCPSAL

[2] = target: Elastase (Pseudomonas aeruginosa (strain ATCC 15692 / PAO1 / 1C / PRS 101 / LMG12228)) (UniProt P14756); test: Antagonist activity at Pseudomonas aeruginosa PA14 LasB assessed as inhibition of swarming at 25 uM after 16 hrs swarming motility assay relative to control; assay type: functional
[3] = Metabolic stability in tryptic soy broth assessed as S-oxidation at 50 uM after 48 hrs; assay type: physicochemical
[4] = Metabolic stability in tryptic soy broth assessed as decomposition at 50 uM after 48 hrs; assay type: physicochemical
Pseudomonas aeruginosa = test: Toxicity against Pseudomonas aeruginosa PA14 assessed as viability at 25 uM by spectrophotometry; assay type: organism-based; conditions: read-out: Activity

Row | Compound | Activity [1] | IC50 (Elastase) [µM] | Activity [2] | Stability [3] | Stability [4] | viability at 25 µM (Pseudomonas aeruginosa) [%]
1 | CCc1c(O)c(=S)ccn1CC | Dose-dependent effect | – | – | – | – | –
2 | CCn1ccc(=S)c(O)c1C | Dose-dependent effect | 88.5 | – | – | – | –
3 | Cc1c(O)c(=S)ccn1Cc1ccc(-c2ccc(F)cc2)cc1 | – | 4.65 | – | – | – | –
4 | O=C(Cc1ccccc1)NO [PHENYLACETOHYDROXAMIC ACID] | Dose-dependent effect | 13.6 | inactive | Unstable | Unstable | –
5 | COc1ccc(-c2ccc(Cn3ccc(=S)c(O)c3C)cc2)cc1 | – | 8.58 | – | – | – | –
6 | Cc1c(O)c(=S)ccn1Cc1ccc(-c2ccc3c(c2)OCO3)cc1 | – | 3.58 | – | – | – | –
7 | Cc1c(O)c(=S)ccn1Cc1ccc(-c2ccc(F)c(F)c2)cc1 | – | 3.34 | Active | Stable | Stable | 95
8 | Cc1c(O)c(=S)ccn1C | Dose-dependent effect | – | – | – | – | –
9 | Cc1ccc(-c2ccc(Cn3ccc(=S)c(O)c3C)cc2)cc1 | – | 6.72 | – | – | – | –
10 | Cc1c(O)c(=S)ccn1Cc1ccc(-c2ccc(Cl)cc2)cc1 | – | 5.27 | – | – | – | –
11 | Cc1c(O)c(=S)ccn1Cc1ccc(-c2ccccc2)cc1 | – | 2.73 | Active | Stable | Stable | 95
12 | Cn1cccc(O)c1=S | Dose-dependent effect | 220 | – | – | – | –
13 | O=C(Cc1cccc(F)c1)NO | Dose-dependent effect | 16.4 | inactive | Unstable | Unstable | –
